Target: T1, Glutamate--cysteine ligase catalytic subunit (Homo sapiens, UniProt P48506)
T1 sequence (P48506 whole entry): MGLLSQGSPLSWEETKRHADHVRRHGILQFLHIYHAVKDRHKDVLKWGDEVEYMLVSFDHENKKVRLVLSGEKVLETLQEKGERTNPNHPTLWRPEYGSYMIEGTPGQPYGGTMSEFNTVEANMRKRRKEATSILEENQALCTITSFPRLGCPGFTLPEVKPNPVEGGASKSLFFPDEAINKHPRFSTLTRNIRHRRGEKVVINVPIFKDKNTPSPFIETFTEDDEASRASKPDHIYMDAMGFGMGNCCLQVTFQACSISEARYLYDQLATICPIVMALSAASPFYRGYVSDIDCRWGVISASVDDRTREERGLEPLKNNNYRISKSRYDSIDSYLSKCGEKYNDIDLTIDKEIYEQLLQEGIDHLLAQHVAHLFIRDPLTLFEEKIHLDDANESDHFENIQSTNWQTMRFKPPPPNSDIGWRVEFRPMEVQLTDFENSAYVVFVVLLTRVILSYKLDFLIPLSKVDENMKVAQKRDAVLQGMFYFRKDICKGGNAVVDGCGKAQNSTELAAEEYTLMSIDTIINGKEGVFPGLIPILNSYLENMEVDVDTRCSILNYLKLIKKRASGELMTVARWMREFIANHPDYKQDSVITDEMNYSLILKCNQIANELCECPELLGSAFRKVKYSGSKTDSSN
Assay: GCL Enzyme Profiling Assay
Experimental: Compound in pure DMSO was stamped in assay plates (Greiner black 384-well) or appropriate containers using a D300e digital dispenser (TECAN) and the final DMSO concentration was normalized to 1%. A 5 mL, or in the present case, 5 μL mixture of human recombinant GCL (final concentration: 5 nM) and ATP (final concentration: 0.6 mM) was added and the solution was incubated at room temperature (22° C.) for 1 h. […] The reaction was stopped after 1 h or in the present case, 2 h by addition of 5 mL, or in the present case, 5 μL ADP GLO Reagent (Promega). The resulting solution was incubated for 2 h at room temperature. This was then followed by addition of 5 mL, or in the present case, 5 μL ADP GLO Detection. After incubation at room temperature for 30 min, the plates were read on a plate reader (PheraStar) using a luminescence protocol to quantify the GCL enzyme activity from each reaction solution.

Row | SMILES | IC50 [µM]
1 | CC(C)c1ccccc1-c1ccc(C(CCS(=N)(=O)CC[C@H](N)C(=O)O)C(F)(F)F)cc1 (some centres undefined) [US20260034094, Compound 266] | < 20
2 | Cn1ncc(-c2ccc(C(O)(CCS(=N)(=O)CC[C@H](N)C(=O)O)C(F)(F)F)cc2)cc1=O (some centres undefined) [US20260034094, Compound 433] | < 20
3 | Cc1ccc(-c2ccc(C(CCS(=N)(=O)CC[C@H](N)C(=O)O)C(F)(F)F)cc2)c(C)c1 (some centres undefined) [US20260034094, Compound 280] | < 20
4 | Cc1ccccc1-c1ccc(C(O)(CCS(=N)(=O)CC[C@H](N)C(=O)O)C(F)(F)F)cc1 (some centres undefined) [US20260034094, Compound 429] | < 20
5 | N=S(=O)(CC[C@H](N)C(=O)O)CCC(O)(c1ccc(-c2ccc(Cl)cc2)cc1)C(F)(F)F (some centres undefined) [US20260034094, Compound 431] | < 20
6 | N=S(=O)(CCC(c1ccc(-c2ccc(Cl)cc2Cl)cn1)C(F)(F)F)CC[C@H](N)C(=O)O (some centres undefined) [US20260034094, Compound 317] | < 20
7 | N=S(=O)(CCc1cccc(Cl)c1F)CC[C@H](N)C(=O)O (some centres undefined) [US20260034094, Compound 28] | < 20
8 | COc1ccc(-c2ccc(C(CCS(=N)(=O)CC[C@H](N)C(=O)O)C(F)(F)F)cc2)c(Cl)c1 (some centres undefined) [US20260034094, Compound 268] | < 20
9 | N=S(=O)(CCC(c1ccc2[nH]cnc2c1)C(F)(F)F)CC[C@H](N)C(=O)O (some centres undefined) [US20260034094, Compound 399] | < 20
10 | N=S(=O)(CCC(c1ccc(-c2ccccc2C(F)(F)F)cc1)C(F)(F)F)CC[C@H](N)C(=O)O (some centres undefined) [US20260034094, Compound 267] | < 20
11 | N=S(=O)(CCC(c1ccc(-c2cc[nH]n2)cc1)C(F)(F)F)CC[C@H](N)C(=O)O (some centres undefined) [US20260034094, Compound 228] | < 20
12 | N=S(=O)(CCC(c1ccccn1)C(F)(F)F)CC[C@H](N)C(=O)O (some centres undefined) [US20260034094, Compound 313] | < 20
13 | N=S(=O)(CCC(N1CCN(c2ccc(Cl)cc2Cl)CC1)C(F)(F)F)CC[C@H](N)C(=O)O (some centres undefined) [US20260034094, Compound 423] | < 20
14 | Cc1ccccc1-c1ccc(C(CCS(=N)(=O)CC[C@H](N)C(=O)O)C(F)(F)F)cc1 (some centres undefined) [US20260034094, Compound 265] | < 20
15 | N=S(=O)(CCC(c1ccc(-c2ccc(Cl)cc2)cc1)C(F)(F)F)CC[C@H](N)C(=O)O (some centres undefined) [US20260034094, Compound 277] | < 20
16 | CC(C)(C)CCS(=N)(=O)CC[C@H](N)C(=O)Nc1nccs1 (some centres undefined) [US20260034094, Compound 121] | > 2000
17 | N=S(=O)(CCC(c1ccc(-c2cccnc2)cc1)C(F)(F)F)CC[C@H](N)C(=O)O (some centres undefined) [US20260034094, Compound 243] | < 20
18 | C=C(c1ccc(C(CCS(=N)(=O)CC[C@H](N)C(=O)O)C(F)(F)F)cc1)C(F)(F)F (some centres undefined) [US20260034094, Compound 260] | < 20
19 | N=S(=O)(CC[C@H](N)C(=O)O)CCC(O)(c1ccc(Oc2ccc(Cl)cc2Cl)cc1)C(F)(F)F (some centres undefined) [US20260034094, Compound 342] | < 20

Row | SMILES | IC50 [µM]
20 | N=S(=O)(CCC(c1ccc2[nH]nnc2c1)C(F)(F)F)CC[C@H](N)C(=O)O (some centres undefined) [US20260034094, Compound 393] | < 20
21 | Cc1cc(C(O)(CCS(=N)(=O)CC[C@H](N)C(=O)O)C(F)(F)F)ccc1-c1ccc(Cl)cc1Cl (some centres undefined) [US20260034094, Compound 443] | < 20
22 | CNC(=O)c1cccc(-c2ccc(C(CCS(=N)(=O)CC[C@H](N)C(=O)O)C(F)(F)F)cc2)c1 (some centres undefined) [US20260034094, Compound 230] | < 20
23 | N=S(=O)(CCC(c1ccc(C2CC2)cc1)C(F)(F)F)CC[C@H](N)C(=O)O (some centres undefined) [US20260034094, Compound 225] | < 20
24 | N=S(=O)(CCC(c1ccc(-c2cnc3[nH]ccc3c2)cc1)C(F)(F)F)CC[C@H](N)C(=O)O (some centres undefined) [US20260034094, Compound 253] | < 20
25 | N=S(=O)(CCC(c1ccc(-c2ccc(Br)cc2)cc1)C(F)(F)F)CC[C@H](N)C(=O)O (some centres undefined) [US20260034094, Compound 226] | < 20
26 | N=S(=O)(CCC(c1cccc(C#Cc2ccccc2)c1)C(F)(F)F)CC[C@H](N)C(=O)O (some centres undefined) [US20260034094, Compound 273] | < 20
27 | Cc1ccccc1-c1ccc(C(O)(CCS(=N)(=O)CC[C@H](N)C(=O)O)C(F)(F)F)nc1 (some centres undefined) [US20260034094, Compound 471] | < 20
28 | N=S(=O)(CCC(c1cccc(-c2cccc(F)c2)c1)C(F)(F)F)CC[C@H](N)C(=O)O (some centres undefined) [US20260034094, Compound 287] | < 20
29 | Cc1ccc(-c2ccc(C(O)(CCS(=N)(=O)CC[C@H](N)C(=O)O)C(F)(F)F)cc2)c(Cl)c1 (some centres undefined) [US20260034094, Compound 432] | < 20
30 | Cc1cc(Cl)ccc1-c1cccc(C(CCS(=N)(=O)CC[C@H](N)C(=O)O)C(F)(F)F)c1 (some centres undefined) [US20260034094, Compound 283] | < 20
31 | N=S(=O)(CCC(c1ccc(-c2cnc(N)nc2)cc1)C(F)(F)F)CC[C@H](N)C(=O)O (some centres undefined) [US20260034094, Compound 251] | < 20
32 | N=S(=O)(CC[C@H](N)C(=O)O)CCC(O)([C@H]1CC[C@@H](c2ccc(Cl)cc2Cl)CC1)C(F)(F)F (some centres undefined) [US20260034094, Compound 341] | < 20
33 | N=S(=O)(CCC(c1ccc(S(=O)(=O)Cc2ccccc2)cc1)C(F)(F)F)CC[C@H](N)C(=O)O (some centres undefined) [US20260034094, Compound 291] | < 20
34 | N=S(=O)(CCC(c1ccc(-c2ccccc2F)cc1)C(F)(F)F)CC[C@H](N)C(=O)O (some centres undefined) [US20260034094, Compound 217] | < 20
35 | Cc1cc(Cl)ccc1-c1cnc(C(O)(CCS(=N)(=O)CC[C@H](N)C(=O)O)C(F)(F)F)nc1 (some centres undefined) [US20260034094, Compound 474] | < 20
36 | N=S(=O)(CCC(c1ccc(-c2ccc(C(N)=O)nc2)cc1)C(F)(F)F)CC[C@H](N)C(=O)O (some centres undefined) [US20260034094, Compound 245] | < 20
37 | N=S(=O)(CCC(c1ccc(-c2ccccc2O)cc1)C(F)(F)F)CC[C@H](N)C(=O)O (some centres undefined) [US20260034094, Compound 235] | < 20
38 | N=S(=O)(CC[C@H](N)C(=O)O)CCC(O)(c1ncc(-c2ccc(Cl)cc2Cl)cn1)C(F)(F)F (some centres undefined) [US20260034094, Compound 462] | < 20

Results, then the compound that gave them:

Row | IC50 [µM] | SMILES
39 | < 20 | Cc1ccc(-c2cccc(C(CCS(=N)(=O)CC[C@H](N)C(=O)O)C(F)(F)F)c2)c(F)c1 (some centres undefined) [US20260034094, Compound 284]
40 | < 20 | N=S(=O)(CC[C@H](N)C(=O)O)CCC(O)([C@H]1CC[C@H](c2ccc(Cl)cc2Cl)CC1)C(F)(F)F (some centres undefined) [US20260034094, Compound 340]
41 | < 20 | N=S(=O)(CCC(c1ccc(-c2ccc3cn[nH]c3c2)cc1)C(F)(F)F)CC[C@H](N)C(=O)O (some centres undefined) [US20260034094, Compound 255]
42 | < 20 | C#Cc1ccc(C(CCS(=N)(=O)CC[C@H](N)C(=O)O)C(F)(F)F)cc1 (some centres undefined) [US20260034094, Compound 272]
43 | < 20 | N=S(=O)(CCC(c1ccc(-c2ccc(C(F)F)cc2)cc1)C(F)(F)F)CC[C@H](N)C(=O)O (some centres undefined) [US20260034094, Compound 231]
44 | < 20 | Cn1cc(-c2ccc(C(O)(CCS(=N)(=O)CC[C@H](N)C(=O)O)C(F)(F)F)nc2)cn1 (some centres undefined) [US20260034094, Compound 472]
45 | < 20 | N=S(=O)(CC[C@H](N)C(=O)O)CCC(O)(c1cc(-c2ccc(Cl)cc2Cl)cs1)C(F)(F)F (some centres undefined) [US20260034094, Compound 337]
46 | < 20 | N=S(=O)(CCC(c1ccc(-c2ccc(Cl)s2)cc1)C(F)(F)F)CC[C@H](N)C(=O)O (some centres undefined) [US20260034094, Compound 256]
47 | < 20 | N=S(=O)(CCC(c1ccc(-c2ccoc2)cc1)C(F)(F)F)CC[C@H](N)C(=O)O (some centres undefined) [US20260034094, Compound 258]
48 | < 20 | CN1CCN(c2ccc(-c3ccc(C(CCS(=N)(=O)CC[C@H](N)C(=O)O)C(F)(F)F)cc3)cn2)CC1 (some centres undefined) [US20260034094, Compound 249]
49 | < 20 | N=S(=O)(CC[C@H](N)C(=O)O)CCC(O)(c1ccc2ccccc2n1)C(F)(F)F (some centres undefined) [US20260034094, Compound 373]
50 | < 20 | N=S(=O)(CC[C@H](N)C(=O)O)CCC(O)(c1cccc(-c2ccccc2)c1)C(F)(F)F (some centres undefined) [US20260034094, Compound 435]
51 | < 20 | N=S(=O)(CCC(c1ccc(-c2cnc3[nH]ncc3c2)cc1)C(F)(F)F)CC[C@H](N)C(=O)O (some centres undefined) [US20260034094, Compound 254]
52 | < 20 | N=S(=O)(CCC(c1cccc2ccccc12)C(F)(F)F)CC[C@H](N)C(=O)O (some centres undefined) [US20260034094, Compound 311]
53 | < 20 | N=S(=O)(CC[C@H](N)C(=O)O)CCC(O)(c1ccn(-c2ccc(Cl)cc2Cl)n1)C(F)(F)F (some centres undefined) [US20260034094, Compound 336]
54 | < 20 | C=C(C)c1ccc(C(CCS(=N)(=O)CC[C@H](N)C(=O)O)C(F)(F)F)cc1 (some centres undefined) [US20260034094, Compound 262]

From BindingDB's records for patent US20260034094 (Kojin Therapeutics, 2026)
